Assay results taken from patent US4808621A, “Trans-6-[2-(N-heteroaryl-3,5-disubstituted)pyrazol-4-yl)-ethyl]- or ethenyl]tetrahydro-4-hydroxypyran-2-one inhibitors of cholesterol biosynthesis” (Warner-Lambert Company, priority 1987, dated 1989).

Experiments:
[1] = test system: sterol synthesis by rat liver homogenate; assay: CSI screen: inhibition of incorporation of 14C-acetate into nonsaponifiable lipid by rat liver homogenate (sterol synthesis); type: biochemical; details: 50% inhibition of sterol synthesis over a one-hour period, liver homogenate of cholestyramine-fed rats
Procedure: The ability of compounds of the present invention to inhibit the biosynthesis of cholesterol was measured by two methods. A first method (designated CSI screen) utilized the procedure described by R. E. Dugan et al., Archiv. Biochem. Biophys., (1972), 152, 21-27. In this method, the level of HMG-CoA enzyme activity in standard laboratory rats is increased by feeding the rats a chow diet containing 5% cholestyramine for four days, after which the rats are sacrificed.
The rat livers are homogenized, and the incorporation of ^14 C-acetate into nonsaponifiable lipid by the rat liver homogenate is measured. The micromolar concentration of compound required for 50% inhibition of sterol synthesis over a one-hour period is measured, and expressed as an IC50 value.

[2] = target: T1, HMG-CoA reductase (Rattus norvegicus, UniProt P51639); assay: COR screen: conversion of 14C-HMG-CoA to 14C-mevalonate by purified HMG-CoA reductase; type: biochemical; details: purified enzyme preparation of HMG-CoA reductase, 14C-HMG-CoA converted to 14C-mevalonate
T1 sequence (P51639 1-887): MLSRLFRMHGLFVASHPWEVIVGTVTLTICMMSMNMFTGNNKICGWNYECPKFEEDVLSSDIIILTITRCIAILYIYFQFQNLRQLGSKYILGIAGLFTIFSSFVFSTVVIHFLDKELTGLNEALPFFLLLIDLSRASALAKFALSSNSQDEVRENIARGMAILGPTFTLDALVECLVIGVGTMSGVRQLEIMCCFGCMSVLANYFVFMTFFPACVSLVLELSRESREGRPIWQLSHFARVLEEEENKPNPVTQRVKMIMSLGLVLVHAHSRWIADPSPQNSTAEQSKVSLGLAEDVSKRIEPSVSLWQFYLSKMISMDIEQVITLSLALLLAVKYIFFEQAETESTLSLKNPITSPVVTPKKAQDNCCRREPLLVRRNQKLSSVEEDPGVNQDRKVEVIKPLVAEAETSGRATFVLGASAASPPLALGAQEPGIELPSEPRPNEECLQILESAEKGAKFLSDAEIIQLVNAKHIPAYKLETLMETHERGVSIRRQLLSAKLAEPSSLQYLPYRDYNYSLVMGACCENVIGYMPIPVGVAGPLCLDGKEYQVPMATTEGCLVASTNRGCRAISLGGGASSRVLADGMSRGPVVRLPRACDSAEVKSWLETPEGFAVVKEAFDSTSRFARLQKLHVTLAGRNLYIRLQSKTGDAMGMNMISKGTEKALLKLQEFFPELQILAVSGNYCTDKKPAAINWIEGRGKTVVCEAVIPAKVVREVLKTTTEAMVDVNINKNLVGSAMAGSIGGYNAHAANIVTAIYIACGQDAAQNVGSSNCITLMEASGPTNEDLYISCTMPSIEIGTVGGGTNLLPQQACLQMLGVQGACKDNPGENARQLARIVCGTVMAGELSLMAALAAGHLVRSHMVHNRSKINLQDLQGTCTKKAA
Procedure: A second method (designated COR screen) employed the procedure detailed by T. Kita, et al., J. Clin. Invest., (1980), 66: 1094-1100. In this method, the amount of ^14 C-HMG-CoA converted to ^14 C-mevalonate in the presence of a purified enzyme preparation of HMG-CoA reductase was measured. The micromolar concentration of compound required for 50% inhibition of cholesterol synthesis was measured and recorded as an IC50 value.

Structure (SMILES)	IC50 [1] [nM]	IC50 [2] [nM]
CC(C)c1nn(-c2ccccn2)c(-c2ccc(F)cc2)c1CC[C@H]1C[C@H](O)CC(=O)O1 (relative stereo) [Compound 1, trans-6-[2-[5-(4-fluorophenyl)-3-(1-methylethyl)-1-(2-pyridinyl)-1H-pyrazol-4-yl]ethyl]tetrahydro-4-hydroxy-2H-pyran-2-one]	39	110
CC[C@H](C)C(=O)O[C@H]1CCC=C2C=C[C@H](C)[C@H](CC[C@@H]3C[C@@H](O)CC(=O)O3)[C@H]21 [Compactin, reference compound]	26	
